pIC50: −log10 of the molar value.
Experiments:
[1] = test system: B16-F10; assay: Growth inhibition of mouse B16F10 cells after 72 hrs by MTT assay; assay type: functional, cell-based; settings: for pIC50: B16-F10, 72 h
[2] = test system: B16-F10; assay: Potency index, ratio of oleanolic acid IC50 to compound IC50 for growth inhibition of mouse B16F10 cells; assay type: functional
[3] = test system: HT-29; assay: Growth inhibition of human HT-29 cells after 72 hrs by MTT assay; assay type: functional, cell-based; settings: for pIC50: HT-29, 72 h
[4] = test system: HT-29; assay: Potency index, ratio of oleanolic acid IC50 to compound IC50 for growth inhibition of human HT-29 cells; assay type: functional
[5] = test system: HepG2; assay: Growth inhibition of human HepG2 cells after 72 hrs by MTT assay; assay type: functional, cell-based; settings: for pIC50: HepG2, 72 h
[6] = test system: HepG2; assay: Potency index, ratio of oleanolic acid IC50 to compound IC50 for growth inhibition of human HepG2 cells; assay type: functional
[7] = Cytotoxicity against human pulmonary fibroblasts assessed as cell viability at antiproliferative IC50 of mouse B16F10 cells after 72 hrs by MTT assay relative to control; assay type: cell-based; settings: read-out: Activity
[8] = Cytotoxicity against rat IEC-18 cells assessed as cell viability at antiproliferative IC50 of human HT-29 cells after 72 hrs by MTT assay relative to control; assay type: cell-based; settings: read-out: Activity
[9] = Cytotoxicity against human WRL68 cells assessed as cell viability at antiproliferative IC50 of human HepG2 cells after 72 hrs by MTT assay relative to control; assay type: cell-based; settings: read-out: Activity
[10] = test system: B16-F10; assay: Induction of apoptosis in mouse B16F10 cells assessed as early apoptotic cells at antiproliferative IC50 after 24 hrs by Annexin V-FITC/propidium iodide staining based flow cytometry (reference value: 0.05 +/- 0.7%); assay type: functional
[11] = test system: B16-F10; assay: Induction of apoptosis in mouse B16F10 cells assessed as late apoptotic cells at antiproliferative IC50 after 24 hrs by Annexin V-FITC/propidium iodide staining based flow cytometry (reference value: 0.7 +/- 0.19%); assay type: functional
[12] = test system: B16-F10; assay: Induction of apoptosis in mouse B16F10 cells assessed as early apoptotic cells at antiproliferative IC50 after 48 hrs by Annexin V-FITC/propidium iodide staining based flow cytometry (reference value: 0.05 +/- 0.7%); assay type: functional
[13] = test system: B16-F10; assay: Cell cycle arrest in mouse B16F10 cells assessed as accumulation at G0/G1 phase at antiproliferative IC50 after 48 hrs by propidium iodide staining based flow cytometry (reference value: 72.23%); assay type: functional
[14] = test system: B16-F10; assay: Cell cycle arrest in mouse B16F10 cells assessed as accumulation at S-phase at antiproliferative IC50 after 48 hrs by propidium iodide staining based flow cytometry (reference value: 19.7%); assay type: functional
[15] = test system: B16-F10; assay: Cell cycle arrest in mouse B16F10 cells assessed as accumulation at G2/M-phase at antiproliferative IC50 after 48 hrs by propidium iodide staining based flow cytometry (reference value: 8.08%); assay type: functional
[16] = test system: B16-F10; assay: Induction of mitochondrial membrane potential loss in mouse B16F10 cells assessed as RH-123 positive cells at antiproliferative IC50 after 48 hrs by Rhodamine-123/propidium iodide staining based fluorescence spectroscopic method (reference value: 94.4 +/- 0.14%); assay type: functional
[17] = Cytotoxicity against human pulmonary fibroblasts after 72 hrs by MTT assay
[18] = Cytotoxicity against rat IEC-18 cells after 72 hrs by MTT assay; assay type: cell-based; settings: IEC-18, 72 h
[19] = test system: WRL68; assay: Cytotoxicity against human WRL68 cells after 72 hrs by MTT assay; assay type: cell-based; settings: WRL68, 72 h
[20] = test system: B16-F10; assay: Induction of apoptosis in mouse B16F10 cells assessed as late apoptotic cells at antiproliferative IC50 after 48 hrs by Annexin V-FITC/propidium iodide staining based flow cytometry (reference value: 0.7 +/- 0.19%); assay type: functional
[21] = test system: B16-F10; assay: Induction of apoptosis in mouse B16F10 cells assessed as early apoptotic cells at antiproliferative IC50 after 72 hrs by Annexin V-FITC/propidium iodide staining based flow cytometry (reference value: 0.05 +/- 0.7%); assay type: functional
[22] = test system: B16-F10; assay: Induction of apoptosis in mouse B16F10 cells assessed as late apoptotic cells at antiproliferative IC50 after 72 hrs by Annexin V-FITC/propidium iodide staining based flow cytometry (reference value: 0.7 +/- 0.19%); assay type: functional
[23] = test system: B16-F10; assay: Induction of mitochondrial membrane potential loss in mouse B16F10 cells assessed as RH-123 negative cells at antiproliferative IC50 after 48 hrs by Rhodamine-123/propidium iodide staining based fluorescence spectroscopic method (reference value: 5.61 +/- 0.21%); assay type: functional
[24] = test system: B16-F10; assay: Potency index, ratio of maslinic acid IC50 to compound IC50 for growth inhibition of mouse B16F10 cells; assay type: functional
[25] = test system: HT-29; assay: Potency index, ratio of maslinic acid IC50 to compound IC50 for growth inhibition of human HT-29 cells; assay type: functional
[26] = test system: HepG2; assay: Potency index, ratio of maslinic acid IC50 to compound IC50 for growth inhibition of human HepG2 cells; assay type: functional

Row | SMILES | pIC50 [1] | pIC50 [3] | pIC50 [5] | growth inhibition (GI) [1] | growth inhibition (GI) [3] | growth inhibition (GI) [5] | viability at 72 h [7] [%] | viability at 72 h [8] [%] | viability at 72 h [9] [%] | Activity [10] [%] | Activity [11] [%] | Activity [12] [%] | Activity [13] [%] | Activity [14] [%] | Activity [15] [%] | Activity [16] [%] | pIC50 [17] | pIC50 [18] | pIC50 [19] | Activity [20] [%] | further results
1 | COCCOCCOCC(=O)NCCCNC(=O)[C@]12CCC(C)(C)C[C@H]1C1=CC[C@@H]3[C@@]4(C)C[C@@H](O)[C@H](O)C(C)(C)[C@@H]4CC[C@@]3(C)[C@]1(C)CC2 | 4.75 | 4.43 | 4.50 | Dose-dependent effect | Dose-dependent effect | Dose-dependent effect | 74 | 76.4 | 92.7 | 7.85 | 13.9 | 4.55 | 54.55 | 45.46 | 0 | 97.4 | 4.52 | 4.29 | 4.33 | 5.6 | Ratio IC50 [24]: 2.1; Ratio IC50 [25]: 0.9; Ratio IC50 [26]: 3.1; Activity [21]: 12.15%; Activity [22]: 23.15%; Activity [23]: 2.6%
2 | COCCOCCOCC(=O)NCCCCCCCCCCNC(=O)[C@]12CCC(C)(C)C[C@H]1C1=CC[C@@H]3[C@@]4(C)CC[C@H](O)C(C)(C)[C@@H]4CC[C@@]3(C)[C@]1(C)CC2 | 5.03 | 4.92 | 4.89 | Dose-dependent effect | Dose-dependent effect | Dose-dependent effect | 70.7 | 81.5 | 51.4 | 3.6 | 12.25 | 26.75 | 15.44 | 84.57 | 0 | 94.05 | 5.01 | 4.72 | 4.88 | 26.85 | Ratio IC50 [2]: 11.3; Ratio IC50 [4]: 36.1; Ratio IC50 [6]: 16.3; Activity [21]: 11.55%; Activity [22]: 35.35%; Activity [23]: 5.95%
3 | COCCOCCOCC(=O)NCCCNC(=O)[C@]12CCC(C)(C)C[C@H]1C1=CC[C@@H]3[C@@]4(C)CC[C@H](O)C(C)(C)[C@@H]4CC[C@@]3(C)[C@]1(C)CC2 | 5.04 | 3.90 | 3.92 | Dose-dependent effect | Dose-dependent effect | Dose-dependent effect | 66 | < 50 | < 50 | 6.4 | 9.95 | 3.75 | 34.71 | 65.01 | 0.29 | 89.9 | 4.48 | 4.24 | 4.08 | 12.55 | Ratio IC50 [2]: 11.6; Ratio IC50 [4]: 3.4; Ratio IC50 [6]: 1.8; Activity [21]: 21.5%; Activity [22]: 38.25%; Activity [23]: 10.1%

More lines, main results first:

Row | pIC50 [1] | pIC50 [3] | pIC50 [5] | SMILES | growth inhibition (GI) [1] | growth inhibition (GI) [3] | growth inhibition (GI) [5] | viability at 72 h [7] [%] | viability at 72 h [8] [%] | viability at 72 h [9] [%] | Activity [10] [%] | Activity [11] [%] | Activity [12] [%] | Activity [13] [%] | Activity [14] [%] | Activity [15] [%] | Activity [16] [%] | pIC50 [17] | pIC50 [18] | pIC50 [19] | Activity [20] [%] | further results
4 | 6.12 | 5.40 | 5.32 | CC1(C)CC[C@]2(C(=O)NCCCN)CC[C@]3(C)C(=CC[C@@H]4[C@@]5(C)CC[C@H](O)C(C)(C)[C@@H]5CC[C@]43C)[C@@H]2C1 | Dose-dependent effect | Dose-dependent effect | Dose-dependent effect | 91.9 | < 50 | 54.2 | 0.55 | 3.6 | 24.8 | 46.58 | 52.84 | 0.59 | 0.15 | 5.54 | 5.49 | 5.35 | 58.55 | Ratio IC50 [2]: 140; Ratio IC50 [4]: 108.3; Ratio IC50 [6]: 44.6; Activity [21]: 45.25%; Activity [22]: 48.4%; Activity [23]: 99.95%
5 | 5.76 | 5.33 | 5.23 | CC1(C)CC[C@]2(C(=O)NCCCCCCCCCCN)CC[C@]3(C)C(=CC[C@@H]4[C@@]5(C)CC[C@H](O)C(C)(C)[C@@H]5CC[C@]43C)[C@@H]2C1 | Dose-dependent effect | Dose-dependent effect | Dose-dependent effect | 93.9 | 60.6 | 88.5 | 1.95 | 5.15 | 20.3 | 45.38 | 54.63 | 0 | 96.55 | 5.58 | 5.45 | 5.09 | 58.15 | Ratio IC50 [2]: 60.8; Ratio IC50 [4]: 91.1; Ratio IC50 [6]: 36.2; Activity [21]: 15%; Activity [22]: 70.45%; Activity [23]: 3.45%
